Assay results: article PMC10649961, “Novel Mitochondria-Targeted Amphiphilic Aminophosphonium Salts and Lipids Nanoparticles: Synthesis, Antitumor Activity and Toxicity” (Nanomaterials, 2023)
Read-outs that look alike come from different tables or passages of the source.

Legend:
SK-OV-3 [1] = test system: SK-OV-3
MCF-7 [2] = assay: cells; conditions: Homo sapiens, MCF7, 48 h, read-out: Cytotoxic Effects (IC50)
[3] = test system: Pseudomonas aeruginosa ATCC 9027; assay: Antimicrobial activity, serial microdilutions, Pa; assay type: cell-based; set-up: key to Minimum Inhibitory Concentration (MIC) / Minimum bactericidal and fungicidal concentrations (MBC, MFC): – means non-active
Description: (§1) The antimicrobial activity of test compounds was determined by serial microdilutions in 96-well plates using Mueller-Hinton broth for bacterial culture and Sabouraud broth for yeast culture. Cultures of Gram-positive bacteria were used in the experiment: Staphylococcus aureus ATCC 6538 P FDA 209P, Bacillus cereus ATCC 10702 NCTC 8035, Enterococcus faecalis ATCC 29212; Gram-negative bacteria: Escherichia coli ATCC 25922, Pseudomonas aeruginosa ATCC 9027; and yeast: Candida albicans ATCC 10231, purchased from the State Collection of Pathogenic Microorganisms and Cell Cultures “SCPM-Obolensk” (Obolensk, Russia). Methicillin-resistant strains of S. aureus (MRSA) were isolated from patients with chronic tonsillitis (MRSA-1) and sinusitis (MRSA-2) in the bacteriological laboratory of the Republican Clinical Hospital (Kazan, Russia). The experiments were carried out in triplicate.

[4] = test system: Candida albicans ATCC 10231; assay: Antimicrobial activity, serial microdilutions, Ca; assay type: cell-based; set-up: key to Minimum Inhibitory Concentration (MIC) / Minimum bactericidal and fungicidal concentrations (MBC, MFC): – means non-active; conditions: for Minimum Inhibitory Concentration (MIC) / Minimum bactericidal and fungicidal concentrations (MBC, MFC): Ca
Description: as §1

[5] = test system: Bacillus cereus ATCC 10702 NCTC 8035; assay: Antimicrobial activity, serial microdilutions, Bc; assay type: cell-based; set-up: key to Minimum bactericidal and fungicidal concentrations (MBC, MFC): – means non-active; conditions: for MIC / MBC: Bacillus cereus; for MIC: read-out: Minimum Inhibitory Concentration (MIC); for MBC: read-out: Minimum bactericidal and fungicidal concentrations (MBC, MFC)
Description: as §1

T98G [6] = assay: cells; conditions: Homo sapiens, 48 h, read-out: Cytotoxic Effects (IC50)
Hep G2 [7] = assay: cells; conditions: Homo sapiens, HepG2, 48 h, read-out: Cytotoxic Effects (IC50)
Hep G2 [8] = test system: Hep G2
PC3 [9] = assay: cells; conditions: Homo sapiens, PC-3, 48 h, read-out: Cytotoxic Effects (IC50), PC3, MTT assay, 48 h
M-HeLa [10] = test system: M-HeLa
HuTu 80 [11] = test system: HuTu 80
[12] = test system: Enterococcus faecalis ATCC 29212; assay: Antimicrobial activity, serial microdilutions, Ef; assay type: cell-based; set-up: key to Minimum Inhibitory Concentration (MIC) / Minimum bactericidal and fungicidal concentrations (MBC, MFC): – means non-active; conditions: for MIC / MBC: Enterococcus faecalis; for MIC: ATCC29212, read-out: Minimum Inhibitory Concentration (MIC); for MBC: ATCC29212, read-out: Minimum bactericidal and fungicidal concentrations (MBC, MFC)
Description: as §1

PANC-1 [13] = assay: cells; conditions: Homo sapiens, PANC-1, 48 h, read-out: Cytotoxic Effects (IC50)
HuTu 80 [14] = assay: cells; conditions: Homo sapiens, HuTu80, 48 h, read-out: Cytotoxic Effects (IC50)
MCF-7 [15] = test system: MCF-7
T98G [16] = test system: T98G
A549 [17] = test system: A549
[18] = test system: Staphylococcus aureus ATCC 6538 P FDA 209P; assay: Antimicrobial activity, serial microdilutions, Sa; assay type: cell-based; set-up: key to Minimum bactericidal and fungicidal concentrations (MBC, MFC): – means non-active; conditions: for MIC / MBC: Staphylococcus aureus; for MIC: read-out: Minimum Inhibitory Concentration (MIC); for MBC: read-out: Minimum bactericidal and fungicidal concentrations (MBC, MFC)
Description: as §1

[19] = test system: Escherichia coli ATCC 25922; assay: Antimicrobial activity, serial microdilutions, Ec; assay type: cell-based; set-up: key to Minimum Inhibitory Concentration (MIC) / Minimum bactericidal and fungicidal concentrations (MBC, MFC): – means non-active; conditions: for MIC / MBC: Escherichia coli; for MIC: ATCC25922, read-out: Minimum Inhibitory Concentration (MIC); for MBC: ATCC25922, read-out: Minimum bactericidal and fungicidal concentrations (MBC, MFC)
Description: as §1

SK-OV-3 [20] = assay: cells; conditions: Homo sapiens, SK-OV-3, 48 h, read-out: Cytotoxic Effects (IC50)
PANC-1 [21] = test system: PANC-1
PC3 [22] = test system: PC3
MRSA-1 = assay: Antimicrobial activity, serial microdilutions, MRSA-1; assay type: cell-based, S. aureus; set-up: key to Minimum Inhibitory Concentration (MIC) / Minimum bactericidal and fungicidal concentrations (MBC, MFC): – means non-active; conditions: for MIC / MBC: Staphylococcus aureus; for MIC: read-out: Minimum Inhibitory Concentration (MIC); for MBC: read-out: Minimum bactericidal and fungicidal concentrations (MBC, MFC)
Description: as §1

A549 [23] = assay: cells; conditions: Homo sapiens, A549, 48 h, read-out: Cytotoxic Effects (IC50)
M-HeLa [24] = assay: cells; conditions: Homo sapiens, 48 h, read-out: Cytotoxic Effects (IC50)
MRSA-2 = assay: Antimicrobial activity, serial microdilutions, MRSA-2; assay type: cell-based, S. aureus; conditions: Staphylococcus aureus; for MIC: read-out: Minimum Inhibitory Concentration (MIC); for MBC: read-out: Minimum bactericidal and fungicidal concentrations (MBC, MFC)
Description: as §1

DU-145 [25] = assay: cells; conditions: Homo sapiens, DU-145, 48 h, read-out: Cytotoxic Effects (IC50), DU-145, MTT assay, 48 h
DU-145 [26] = test system: DU-145
[27] = reference normal cell line not marked at the place (ns cells)
[28] = calculated relative to the cell line Chang liver (b)
[29] = calculated relative to the cell line WI38 (a)

`CCCCCCCCC[P+](N(CC)CC)(N(CC)CC)N(CC)CC` [4c, Tris(diethylamino)(nonyl)phosphonium iodide] was tested, and the “selectivity index (SI)” value (SK-OV-3 [1]; [27]) was “ns (ns—no selectivity)”, the IC50 (MCF-7 [2]) was 1.9 ± 0.1 µM and the “Minimum Inhibitory Concentration (MIC)” value [3] was “–”. For the same compound, the “Minimum bactericidal and fungicidal concentrations (MBC, MFC)” value [3] was “–”, the “Minimum Inhibitory Concentration (MIC)” value [4] was “–” and the “Minimum bactericidal and fungicidal concentrations (MBC, MFC)” value [4] was “–”. It also gave an MIC ([5]; Bc) of 3.9 ± 0.3 µM, an MBC [5] greater than 500 µM and an IC50 (T98G [6]) of 3.2 ± 0.2 µM. For the same compound, the IC50 (Hep G2 [7]) was 2.4 ± 0.1 µM, the “selectivity index (SI)” value (Hep G2 [8]; [28]) was 2.0 and the IC50 (PC3 [9]) was 1.8 ± 0.1 µM. The “selectivity index (SI)” value (M-HeLa [10]; [28]) was 2.8, the “selectivity index (SI)” value (HuTu 80 [11]; [28]) was 1.8 and the MIC [12] was 62.5 ± 5.2 µM. The MBC [12] was 500 ± 48 µM, the IC50 (PANC-1 [13]) was 1.7 ± 0.1 µM and the IC50 (HuTu 80 [14]) was 2.6 ± 0.2 µM. For the same compound, the “selectivity index (SI)” value (MCF-7 [15]; [28]) was 2.5, the “selectivity index (SI)” value (T98G [16]; [28]) was 1.5 and the “selectivity index (SI)” value (A549 [17]; [27]) was “ns (ns—no selectivity)”. The MIC [18] was 3.9 ± 0.3 µM, the MBC [18] was 250 ± 18 µM and the MIC [19] was 500 ± 48 µM. For the same compound, the MBC [19] was 500 ± 48 µM, the IC50 (SK-OV-3 [20]) was 12.1 ± 1.1 µM and the “selectivity index (SI)” value (PANC-1 [21]; [28]) was 2.8. For the same compound, the “selectivity index (SI)” value (PC3 [22]; [28]) was 2.7, the MIC (MRSA-1) was 3.9 ± 0.4 µM and the MBC (MRSA-1) was 125 ± 10 µM. For the same compound, the IC50 (A549 [23]) was 21.1 ± 1.5 µM, the IC50 (M-HeLa [24]) was 1.7 ± 0.1 µM and the MIC (MRSA-2) was 7.8 ± 0.6 µM. The MBC (MRSA-2) was 250 ± 20 µM.

With `CCCCCCCC[N+](CC)(CC)CC` [compound 7, Triethyloctylammonium iodide, reference compound] the “selectivity index (SI)” value (SK-OV-3 [1]; [27]) was “ns (ns—no selectivity)”, the IC50 (MCF-7 [2]) was 29.1 ± 2 µM and the “Minimum Inhibitory Concentration (MIC)” value [3] was “–”. The “Minimum bactericidal and fungicidal concentrations (MBC, MFC)” value [3] was “–”, the “Minimum Inhibitory Concentration (MIC)” value [4] was “–” and the “Minimum bactericidal and fungicidal concentrations (MBC, MFC)” value [4] was “–”. For the same compound, the MIC ([5]; Bc) was 500 ± 47 µM, the “Minimum bactericidal and fungicidal concentrations (MBC, MFC)” value ([5]; Bc) was “–” and the IC50 (DU-145 [25]) was 58 ± 4.1 µM. For the same compound, the IC50 (T98G [6]) was greater than 100 µM, the IC50 (Hep G2 [7]) was greater than 100 µM and the “selectivity index (SI)” value (Hep G2 [8]; [27]) was “ns (ns—no selectivity)”. For the same compound, the IC50 (PC3 [9]) was 32.7 ± 2.3 µM, the “selectivity index (SI)” value (M-HeLa [10]; [29]) was 3.0 and the “selectivity index (SI)” value (HuTu 80 [11]; [29]) was 26. For the same compound, the “Minimum Inhibitory Concentration (MIC)” value [12] was “–”, the “Minimum bactericidal and fungicidal concentrations (MBC, MFC)” value [12] was “–” and the “selectivity index (SI)” value (DU-145 [26]; [27]) was “ns (ns—no selectivity)”. For the same compound, the IC50 (PANC-1 [13]) was 44.6 ± 3.1 µM, the IC50 (HuTu 80 [14]) was 1.9 ± 0.2 µM and the “selectivity index (SI)” value (MCF-7 [15]; [29]) was 1.7. For the same compound, the “selectivity index (SI)” value (T98G [16]; [27]) was “ns (ns—no selectivity)”, the “selectivity index (SI)” value (A549 [17]; [27]) was “ns (ns—no selectivity)” and the “Minimum bactericidal and fungicidal concentrations (MBC, MFC)” value [18] was “–”. For the same compound, the MIC [18] was 250 ± 20 µM, the “Minimum Inhibitory Concentration (MIC)” value [19] was “–” and the “Minimum bactericidal and fungicidal concentrations (MBC, MFC)” value [19] was “–”. For the same compound, the IC50 (SK-OV-3 [20]) was 69 ± 4.8 µM, the “selectivity index (SI)” value (PANC-1 [21]; [29]) was 1.1 and the “selectivity index (SI)” value (PC3 [22]; [29]) was 1.5. For the same compound, the “Minimum bactericidal and fungicidal concentrations (MBC, MFC)” value (MRSA-1) was “–”, the MIC (MRSA-1) was 250 ± 19 µM and the IC50 (A549 [23]) was greater than 100 µM. It also gave an IC50 (M-HeLa [24]) of 16.1 ± 1.3 µM, an MIC (MRSA-2) of 250 ± 20 µM and an MBC (MRSA-2) of 500 ± 47 µM.

For `CCCCCCCCCCCCCC[P+](c1ccccc1)(c1ccccc1)N(CC)CC` [6e, (Diethylamino)diphenyl(tetradecyl)phosphonium bromide], the “selectivity index (SI)” value (SK-OV-3 [1]; [29]) was 1.8, the IC50 (MCF-7 [2]) was 1.2 ± 0.1 µM and the MIC ([3]; Pseudomonas aeruginosa, ATCC9027, read-out: Minimum Inhibitory Concentration (MIC)) was 3.9 ± 0.3 µM. It also gave an MBC ([3]; Pseudomonas aeruginosa, ATCC9027, read-out: Minimum bactericidal and fungicidal concentrations (MBC, MFC)) of 3.9 ± 0.4 µM, an MIC ([4]; Candida albicans, ATCC10231, read-out: Minimum Inhibitory Concentration (MIC)) of 1.9 ± 0.1 µM and an MBC ([4]; Candida albicans, ATCC10231, read-out: Minimum bactericidal and fungicidal concentrations (MBC, MFC)) of 15.6 ± 1.2 µM. The MIC ([5]; Bc) was 0.9 ± 0.08 µM, the MBC [5] was 31.3 ± 2.5 µM and the IC50 (DU-145 [25]) was 0.4 ± 0.02 µM. The IC50 (T98G [6]) was 1.1 ± 0.09 µM, the IC50 (Hep G2 [7]) was 1.4 ± 0.1 µM and the “selectivity index (SI)” value (Hep G2 [8]; [29]) was 2.0. The IC50 (PC3 [9]) was 1.5 ± 0.1 µM, the “selectivity index (SI)” value (M-HeLa [10]; [29]) was 7.0 and the “selectivity index (SI)” value (HuTu 80 [11]; [29]) was 40. The MIC [12] was 0.5 ± 0.03 µM, the MBC [12] was 0.9 ± 0.1 µM and the “selectivity index (SI)” value (DU-145 [26]; [29]) was 7.0. The IC50 (PANC-1 [13]) was 0.3 ± 0.02 µM, the IC50 (HuTu 80 [14]) was 0.07 ± 0.005 µM and the “selectivity index (SI)” value (MCF-7 [15]; [29]) was 2.3. For the same compound, the “selectivity index (SI)” value (T98G [16]; [29]) was 2.5, the “selectivity index (SI)” value (A549 [17]; [29]) was 1.3 and the MIC [18] was 0.5 ± 0.04 µM. It also gave an MBC [18] of 0.5 ± 0.04 µM, an MIC [19] of 31.3 ± 2.4 µM and an MBC [19] of 125 ± 11 µM. The IC50 (SK-OV-3 [20]) was 1.6 ± 0.1 µM, the “selectivity index (SI)” value (PANC-1 [21]; [29]) was 9.3 and the “selectivity index (SI)” value (PC3 [22]; [29]) was 1.9. It also gave an MIC (MRSA-1) of 0.5 ± 0.04 µM, an MBC (MRSA-1) of 1.9 ± 0.1 µM and an IC50 (A549 [23]) of 2.1 ± 0.1 µM. It also gave an IC50 (M-HeLa [24]) of 0.4 ± 0.03 µM, an MIC (MRSA-2) of 0.5 ± 0.03 µM and an MBC (MRSA-2) of 0.5 ± 0.04 µM.
